Results on 19 molecules are retold here after patent US20100216802A1, “PTERIDINE DERIVATIVES AS POLO-LIKE KINASE INHIBITORS USEFUL IN THE TREATMENT OF CANCER” (CHROMA THERAPEUTICS LTD., priority 2006, published 2010).

One assay concerns the target T1, PLK1 (Homo sapiens, UniProt P53350).
T1 construct: purchased Invitrogen (Paisley, UK)
Nature of the assay: PLK1 enzyme assay (Z'-LYTE, Invitrogen). It counts as biochemical. Particulars: ATP at or close to Km; read-out: Inhibitor Activity vs PLK1. The method, then:
The ability of compounds to inhibit PLK-1 kinase activity was measured in an assay performed by Invitrogen (Paisley, UK). The Z′-LYTE™ biochemical assay employs a fluorescence-based, coupled-enzyme format and is based on the differential sensitivity of phosphorylated and non-phosphorylated peptides to proteolytic cleavage. The peptide substrate is labelled with two fluorophores—one at each end—that make up a FRET pair. In the primary reaction, the kinase transfers the gamma-phosphate of ATP to a single serine or threonine residue in a synthetic FRET-peptide. In the secondary reaction, a site-specific protease recognizes and cleaves non-phosphorylated FRET-peptides. Phosphorylation of FRET-peptides suppresses cleavage by the Development Reagent. Cleavage disrupts FRET between the donor (i.e., coumarin) and acceptor (i.e., fluorescein) fluorophores on the FRET-peptide, whereas uncleaved, phosphorylated FRET-peptides maintain FRET. A […] method, which calculates the ratio (the Emission Ratio) of donor emission to acceptor emission after excitation of the donor fluorophore at 400 nm, is used to quantitate reaction progress.
The assay is performed at an ATP concentration at, or close to, the Km. After the 60 minute Kinase Reaction incubation at RT, 5 μL of a 1:8 dilution of Development Reagent is added. The assay plate is incubated for a further 60 minutes at RT and read on a fluorescence plate reader.
Duplicate data points are generated from a ⅓ log dilution series of a stock solution of test compound in DMSO. Nine dilutions steps are made from a top concentration of 10 μM, and a ‘no compound’ blank is included. Data is collected and analysed using XLfit software from IDBS.

A further assay has as its system HCT 116 cell line. Kind of assay: Cell inhibition assay method A (WST-1, 120 hrs). It counts as cell-based. Particulars: Homo sapiens, HCT-116, method A, read-out: Inhibitor Activity vs HCT 116 cell line (method A). The method, then: Cell inhibition assays were carried out using either method A or method B
Cells were seeded in 96W tissue culture plates (1 well=30 mm^2) at a density of […] per well in 50 μL of the appropriate culture medium (see below). 24 hrs later […] of the compound prepared in the same medium was added as 4 fold dilutions to give final concentrations in the range 0.15 nM-2500 nM (n=6 for each concentration). The plates were then incubated at 37° C., 5% CO2 for 120 hrs. Cell proliferation was assessed using WST-1 (a metabolic indicator dye, Roche Cat no. 1 644 807) according to the manufacturers instructions. The results were calculated as percentage of vehicle response and IC50 values represent the concentration of compound that inhibited the vehicle response by 50%.
HCT-116 culture medium —Dulbeccos MEM (Sigma D6546) plus 10% heat inactivated fetal calf serum (Hyclone SH30071 Thermo Fischer Scientific) containing 2 mM Glutamine (Sigma cat no G-7513) and 50 U/ml Penicillin and Streptomycin Sulphate (Sigma Cat no P-0781).

Molecules are shown by their SMILES.

T1 sequence (P53350 whole entry): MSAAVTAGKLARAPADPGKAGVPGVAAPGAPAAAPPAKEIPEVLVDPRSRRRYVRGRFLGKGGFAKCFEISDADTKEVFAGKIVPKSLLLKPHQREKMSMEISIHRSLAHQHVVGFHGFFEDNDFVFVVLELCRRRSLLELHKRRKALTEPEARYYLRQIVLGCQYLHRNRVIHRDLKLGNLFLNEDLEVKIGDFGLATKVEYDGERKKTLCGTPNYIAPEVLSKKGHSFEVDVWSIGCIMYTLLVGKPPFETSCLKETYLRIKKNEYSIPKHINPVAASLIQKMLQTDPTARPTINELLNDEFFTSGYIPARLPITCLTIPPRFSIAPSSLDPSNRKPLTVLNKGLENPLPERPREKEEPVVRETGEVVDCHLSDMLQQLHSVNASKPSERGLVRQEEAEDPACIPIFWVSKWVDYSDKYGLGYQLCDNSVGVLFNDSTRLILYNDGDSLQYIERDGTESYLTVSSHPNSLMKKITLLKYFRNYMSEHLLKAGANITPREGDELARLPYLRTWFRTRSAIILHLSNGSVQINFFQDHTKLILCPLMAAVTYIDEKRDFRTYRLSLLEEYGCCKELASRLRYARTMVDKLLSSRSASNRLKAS

Turning to `CC[C@@H]1C(=O)N(C)c2cnc(Nc3ccc(C(=O)NCCCC[C@H](N)C(=O)OC4CCCC4)cc3OC)nc2N1C1CCCC1` [Example 8, Cyclopentyl N^6-(4-{[(7R)-8-cyclopentyl-7-ethyl-5-methyl-6-oxo-5,6,7,8-tetrahydropteridin-2-yl]amino}-3-methoxybenzoyl)lysinate], the IC50 on PLK1 and in the assay with HCT 116 cell line was less than 100 nM each time.
Regarding `CC[C@@H]1C(=O)N(C)c2cnc(Nc3ccc(C(=O)NC4CCN(CC[C@H](N)C(=O)OC5CCCC5)C4)cc3OC)nc2N1C1CCCC1` (some centres unmarked) [Example 16], the IC50 at PLK1 and in the assay with HCT 116 cell line was less than 100 nM in each case.
With `CC[C@@H]1C(=O)N(C)c2cnc(Nc3ccc(C(=O)NCCN4CCNC(C(=O)OC5CCCC5)C4)cc3OC)nc2N1C1CCCC1` (stereo partly drawn) [Example 14, Cyclopentyl 4-{2-[(4-{[(7R)-8-cyclopentyl-7-ethyl-5-methyl-6-oxo-5,6,7,8-tetrahydropteridin-2-yl]amino}-3-methoxybenzoyl)amino]ethyl}piperazine-2-carboxylate], the IC50 on PLK1 and with HCT 116 cell line was less than 100 nM each time.
For `CC[C@@H]1C(=O)N(C)c2cnc(Nc3ccc(C[C@H](N)C(=O)OC4CCCC4)cc3)nc2N1C1CCCC1` [Example 1, Cyclopentyl 4-{[(7R)-8-cyclopentyl-7-ethyl-5-methyl-6-oxo-5,6,7,8-tetrahydropteridin-2-yl]amino}-L-phenylalaninate], the IC50 on PLK1 is less than 100 nM; in the assay on HCT 116 cell line it was 100 to 500 nM.
Taken in the same sequence, the figures for `CC[C@@H]1C(=O)N(C)c2cnc(Nc3ccc(C(=O)Nc4ccc(/C=C/C[C@H](N)C(=O)OC5CCCC5)cc4)cc3OC)nc2N1C1CCCC1` [Example 20, Cyclopentyl (2S,4E)-2-amino-5-{4-[(4-{[(7R)-8-cyclopentyl-7-ethyl-5-methyl-6-oxo-5,6,7,8-tetrahydropteridin-2-yl]amino}-3-methoxybenzoyl)amino]phenyl}pent-4-enoate] were less than 100 nM and less than 100 nM.
Regarding `CC[C@@H]1C(=O)N(C)c2cnc(Nc3ccc(C(=O)NC4CCN(CC[C@@H](N)C(=O)OC5CCCC5)C4)cc3OC)nc2N1C1CCCC1` (stereo partly drawn) [Example 17, Cyclopentyl (2R)-2-amino-4-{3-[(4-{[(7R)-8-cyclopentyl-7-ethyl-5-methyl-6-oxo-5,6,7,8-tetrahydropteridin-2-yl]amino}-3-methoxybenzoyl)amino]pyrrolidin-1-yl}butanoate], the IC50 at PLK1 and with HCT 116 cell line was less than 100 nM each time.
Turning to `CC[C@@H]1C(=O)N(C)c2cnc(Nc3ccc(C(=O)NCCN4CCC(C[C@H](N)C(=O)OC5CCCC5)CC4)cc3OC)nc2N1C1CCCC1` [Example 10, Cyclopentyl 3-(1-{2-[(4-{[(7R)-8-cyclopentyl-7-ethyl-5-methyl-6-oxo-5,6,7,8-tetrahydropteridin-2-yl]amino}-3-methoxybenzoyl)amino]ethyl}piperidin-4-yl)alaninate], the IC50 on PLK1 and in the assay on HCT 116 cell line was less than 100 nM throughout.
`CC[C@@H]1C(=O)N(C)c2cnc(Nc3ccc(C(=O)NC4CCN(CC[C@H](N)C(=O)OC5CCCC5)CC4)cc3C)nc2N1C1CCCC1` [Example 28, Cyclopentyl (2S)-2-amino-4-(4-[(4-{[(7R)-8-cyclopentyl-7-ethyl-5-methyl-6-oxo-5,6,7,8-tetra hydropteridin-2-yl]amino}-3-methylbenzoyl)amino]piperidin-1-yl}butanoate]: the IC50 on PLK1 and in the assay with HCT 116 cell line was less than 100 nM each time.
For the molecule `CC[C@@H]1C(=O)N(C)c2cnc(Nc3ccc(/C=C/C[C@H](N)C(=O)OC4CCCC4)cc3)nc2N1C1CCCC1` [Example 2], the IC50 on PLK1 and with HCT 116 cell line was less than 100 nM throughout.
For the molecule `CC[C@@H]1C(=O)N(C)c2cnc(Nc3ccc(C(=O)Nc4ccc(C[C@H](N)C(=O)OC(C)(C)C)cc4)cc3OC)nc2N1C1CCCC1` [Example 11, tert-Butyl 4-[(4-{[(7R)-8-cyclopentyl-7-ethyl-5-methyl-6-oxo-5,6,7,8-tetrahydropteridin-2-yl]amino}-3-methoxybenzoyl)amino]-L-phenylalaninate], the IC50 was less than 100 nM at PLK1 and 100 to 500 nM in the assay on HCT 116 cell line.
As for `CC[C@@H]1C(=O)N(C)c2cnc(Nc3ccc(C(=O)NC4CCN(CC[C@H](N)C(=O)OC5CCCC5)CC4)cc3F)nc2N1C1CCCC1` [Example 30, Cyclopentyl (2S)-2-amino-4-{4-[(4-{[(7R)-8-cyclopentyl-7-ethyl-5-methyl-6-oxo-5,6,7,8-tetra hydropteridin-2-yl]amino}-3-fluorobenzoyl)amino]piperidin-1-yl}butanoate], the IC50 at PLK1 and in the assay with HCT 116 cell line was less than 100 nM throughout.
Consider `CC[C@@H]1C(=O)N(C)c2cnc(Nc3ccc(C(=O)NCC[C@H](N)C(=O)OC4CCCC4)cc3OC)nc2N1C1CCCC1` [Example 5, Cyclopentyl (2S)-2-amino-4-[(4-{[(7R)-8-cyclopentyl-7-ethyl-5-methyl-6-oxo-5,6,7,8-tetrahydropteridin-2-yl]amino}-3-methoxybenzoyl)amino]butanoate], for which the IC50 on PLK1 and in the assay on HCT 116 cell line was less than 100 nM throughout.
Take `CC[C@@H]1C(=O)N(C)c2cnc(Nc3ccc(C(=O)NC4CCN(CC[C@H](N)C(=O)OC(C)(C)C)CC4)cc3OC)nc2N1C1CCCC1` [Example 25, t-Butyl (2S)-2-amino-4-{4-[(4-{[(7R)-8-cyclopentyl-7-ethyl-5-methyl-6-oxo-5,6,7,8-tetrahydropteridin-2-yl]amino}-3-methoxybenzoyl)amino]piperidin-1-yl}butanoate]: the IC50 on PLK1 and in the assay on HCT 116 cell line was less than 100 nM each time.
On to `CC[C@@H]1C(=O)N(C)c2cnc(Nc3ccc(C(=O)NC4CCN(CCC[C@H](N)C(=O)OC5CCCC5)CC4)cc3OC)nc2N1C1CCCC1` [Example 24, Cyclopentyl 5-{4-[(4-{[(7R)-8-cyclopentyl-7-ethyl-5-methyl-6-oxo-5,6,7,8-tetrahydropteridin-2-yl]amino}-3-methoxybenzoyl)amino]piperidin-1-yl}-L-norvalinate], for which the IC50 at PLK1 and in the assay with HCT 116 cell line was less than 100 nM throughout.
Consider `CC[C@@H]1C(=O)N(C)c2cnc(Nc3ccc(C(=O)NCCN4CCNC(C(=O)OC(C)(C)C)C4)cc3OC)nc2N1C1CCCC1` (stereo partly drawn) [Example 15, tert-butyl 4-{2-[(4-{[(7R)-8-cyclopentyl-7-ethyl-5-methyl-6-oxo-5,6,7,8-tetrahydropteridin-2-yl]amino}-3-methoxybenzoyl)amino]ethyl}piperazine-2-carboxylate], for which the IC50 at PLK1 and with HCT 116 cell line was less than 100 nM in each case.
With `CC[C@@H]1C(=O)N(C)c2cnc(Nc3ccc(C(=O)Nc4ccc(C[C@H](N)C(=O)OC5CCCC5)cc4)cc3OC)nc2N1C1CCCC1` [Example 7, Cyclopentyl 4-[(4-{[(7R)-8-cyclopentyl-7-ethyl-5-methyl-6-oxo-5,6,7,8-tetrahydropteridin-2-yl]amino}-3-methoxybenzoyl)amino]-L-phenylalaninate], the IC50 at PLK1 was 100 to 500 nM; in the assay on HCT 116 cell line, less than 100 nM.
`CC[C@@H]1C(=O)N(C)c2cnc(Nc3ccc(C(=O)NCc4ccc(OCC[C@H](N)C(=O)OC(C)(C)C)cc4)cc3OC)nc2N1C1CCCC1` [Example 12]: the IC50 at PLK1 and in the assay on HCT 116 cell line was less than 100 nM each time.
Take `CC[C@@H]1C(=O)N(C)c2cnc(Nc3ccc(C(=O)N[C@@H]4CN[C@H](C(=O)OC5CCCC5)C4)cc3OC)nc2N1C1CCCC1` [Example 6, Cyclopentyl (4S)-4-[(4-{[(7R)-8-cyclopentyl-7-ethyl-5-methyl-6-oxo-5,6,7,8-tetrahydropteridin-2-yl]amino}-3-methoxybenzoyl)amino]-L-prolinate]: the IC50 at PLK1 and in the assay with HCT 116 cell line was less than 100 nM throughout.
`CC[C@@H]1C(=O)N(C)c2cnc(Nc3ccc(C(=O)Nc4ccc(CCC[C@H](N)C(=O)OC5CCCC5)cc4)cc3OC)nc2N1C1CCCC1` [Example 19, Cyclopentyl 5-{4-[(4-{[(7R)-8-cyclopentyl-7-ethyl-5-methyl-6-oxo-5,6,7,8-tetrahydro-pteridin-2-yl]amino}-3-methoxybenzoyl)amino]phenyl}-L-norvalinate]: the IC50 at PLK1 and in the assay with HCT 116 cell line was less than 100 nM in each case.
